Assays:
miR-193a = miR-193a expression levels in Fadu cells by quantitative real-time PCR; format: cell-based, Homo sapiens; conditions: 5 μM, 48 hours, U6 normalization, vs 0.01% DMSO control
Experimental: FIG. 8 includes a vertical bar graph showing Real-time analysis of miRNA expression patterns in Fadu Cells. The expression levels of miRNAs; hsa-mir193a were analysed using Quantitative real-time PCR, following 5-aza-2′ -deoxycytidine cell treatment. Data represented as average of three independent experiments conducted in triplicates (mean±SD) and U6 was used as normalization. Statistical significance determined by a two-tailed Student's t-test. Significance was determined as follows: ***P<0.01.
miRNA was isolated using mirVana™ miRNA Isolation Kit (Ambion®) according the manufacturer's protocol, the mirVana™ kit utilizes two sequential GFFs, since the small […]
The concentration and purity of miRNA was assessed using NanoDrop™ lite spectrophotometer (NanodropTechnologies, Willmington, Del., USA). miRNA expression profiling was performed using the TaqMan microRNA arrays system (Applied Biosystems) with specific TaqMan primers and probes for miR-193a. cDNA was generated using TaqMan microRNA assay using Primers for the mir-193a with FAM/MGB. […] Real time PCR was carried out with Rotor Gene 6000 Real-Time PCR Machine-Bosch-Bosch, results were analyzed with delta delta Ct (ΔΔCt) method using the rotor Gene 6000 Real-Time PCR software. […]
miRNA were isolated, quantified, profiled and cDNA was generated. […]

Fadu cells [1] = experiment: Fadu xenograft tumor growth in athymic nude mice; format: in vivo; conditions: tumors harvested 21 days post treatment, P<0.0001
Experimental: FIG. 6 includes a graph presenting data from 16 athymic nude male mice which were subcutaneously injected with 1×10^6 Fadu cells. When the tumors reached a volume of 200 mm^3 the mice were divided into 2 groups of 8 mice each, with a similar dispersal of tumor volumes. Mice were injected once a week with intraperitoneal (IP) injection of either PBS×1 to the control group, or 1×10^10 vp AD-miR-193a, for 3 weeks. During the experiments, tumor volumes were measured twice a week using caliber meter. The results presented are the mean±SE. n=8 mice per experimental group.
FIGS. 7A-7B include vertical bar graphs showing the effect of miR-193a on final tumor weight (7A) and volume (7B). The results presented are the mean±SE. n=8 tumors per experimental group. Statistical significance for tumor weight determined by Mann-Whitney and for tumor volume by two-tailed Student's t-test (treatment vs. control). ***P<0.01.
Xenograft animal model were generated via injection of 1×10^6 Fadu cells in Matrigel subcutaneous in athymic nude mice immunodeficient mice. When the tumors reached a volume of 200 mm^3 the mice were divided into 2 groups of 8 mice each, with a similar dispersal of tumor volumes. […]
Tumors were measured by electronic calliper, once a week. 21 days post treatment the tumors were harvested and weight was measured.
The animals were sacrificed, and the tumors were removed, weighed and measured. […]

Fadu cells [2] = experiment: XTT cell viability after transient transfection of Fadu cells; format: cell-based; conditions: 1 μg plasmid, 48 hours post transfection, viability reduced to
Experimental: FIG. 2 includes a vertical bar graph of cell viability following miR-193a-5p plasmid transfection. Squamous cancer cells Fadu were transfected with pCMV-miR-193a, or with p-CMV-GFP (MOC plasmid), 48 hours post transfection. cell viability was detected by XTT. Presented data are means±SD of three experiments, each conducted in eight replicates, and are expressed as percentages of the respective control. ***P<0.001(Dunnett's test).
FIG. 3 includes a vertical bar graph of cell viability following miR-193a-5p plasmid transfection time course experiment. Squamous cancer cells Fadu were transfected with miR-193a-5p or with MOC plasmid, 24 hours, 48 hours and 72 hours post transfection. cell viability was detected by XTT. Presented data are means±SD of three experiments, each conducted in eight replicates, and are expressed as percentages of the respective control. Statistical significance determined by a two-tailed student's t-test. Significance was determined as follows: *P<0.05, **P<0.01 and ***P<0.001.
Fadu Cells were seeded in a 96 well plate (3×10^4 cells/well). […]
At the end of treatment, cell viability was measured using XTT. The data presented are average of at least three independent experiments; 8 repeats each (means±SEM), and are expressed as percentage of the respective vehicle treated control. […]

Compound | Increase in miR-193a expression levels (miR-193a) [folds] | Final tumor volume vs control (Fadu cells [1]) | Final tumor weight vs control (Fadu cells [1]) | Cell viability (XTT), percentage of control (Fadu cells [2]; first experiment) | Cell viability (XTT), percentage of control (Fadu cells [2]; second and third experiment) [%]
Nc1ncn([C@H]2C[C@H](O)[C@@H](CO)O2)c(=O)n1 [5-aza, 5-aza-2′ -deoxycytidine] | 132 | – | – | – | –
miR-193a: Homo sapiens miR-193a, SEQ ID NO:1 UGGGUCUUUGCGGGCGAGAUGA; delivered as CMV plasmid or adenovirus AD-miR-193a (listed as Homo sapiens) | – | significantly reduced | significantly reduced | approximately 70% | ~40

— patent US20220296629A1, “HUMAN HEAD AND NECK CANCER TREATMENT” (CARMEL HAIFA […] CORPORATION LTD., priority 2019, published 2022)
